From patent publication US20220168313A1, “HETEROCYCLIC COMPOUNDS AND USES THEREOF” (Nuvation Bio Inc., priority 2019, published 2022)

Tests used:
WEE1 kinase enzyme = target: T1, WEE1 kinase enzyme (Homo sapiens, UniProt P30291); experiment: WEE1 IC50 determination, LanthaScreen Terbium Labeled TR-FRET kinase assay; format: biochemical; conditions: WEE1 Enzyme 1 nM, ATP 10 μM, fluorescent-PolyGT substrate 200 nM, 1 h
T1 construct: purchased Invitrogen, Life Technologies PR7373A
Protocol: IC50 values of the compounds against WEE1 kinase enzyme were determined by LanthaScreen™ Terbium Labeled TR-FRET assay. Kinase assays were performed in 1× kinase buffer (#PV6135, Invitrogen, Life Technologies, Grand Island, N.Y.) where total reaction volume was 10 μL in low-volume 384-well plates (#4511, Corning). Serially diluted compounds (3-fold) were incubated with WEE1 Enzyme (1 nM) (#PR7373A, Invitrogen, Life Technologies, Grand Island, N.Y.) for 10 min; a mixture of ATP (10 μM) (#A1852, Sigma, St. Louis, Mo.) and fluorescent-PolyGT substrate (200 nM) (#PV3610, Invitrogen, Life Technologies, Grand Island, N.Y.) was added and incubated in dark at room temperature for 1 h. After 1 h, 10 μL stop solution containing terbium labeled antibody (4 nM) (#PV3529, Invitrogen, Life Technologies, Grand Island, N.Y.) and EDTA (#E5134, Sigma, St. Louis, Mo.) (20 mM) in TR-FRET dilution buffer (#PV3574, Invitrogen, Life Technologies, Grand Island, N.Y.) were added. Readings were taken in a Synergy Neo plate reader (BioTek, Winooski, Vt.) at single excitation of 340 nm and dual emission at 495 nm and 520 nm respectively.
The % activity of test samples was calculated as (Sample−Min)*100/(Max−Min). [Max: DMSO control, complete reaction with enzyme & DMSO and Min: No enzyme & DMSO]. Percent inhibition (100-% activity) was fitted to the “four-parameter logistic model” in XLfit for determination of IC50 values.

A427 cells = experiment: Cytotoxicity assay in A427 cell line (resazurin, 72 hr); format: cell-based; conditions: Homo sapiens, A-427; A427 lung epithelial cell line, 72 hr incubation, inhibition of proliferation
Protocol: A427 (HTB-53; ATCC), a lung epithelial cell line, was seeded in medium (MEM, 41090101; Gibco) at a cell count of 1500 cells per 100 μL per well in a 96 well edge plate (167425; ThermoFisher). Cells were allowed to grow at 37° C. for 24 hr in 5% CO2 environment (culture conditions) in a Nuaire incubator (humidified). Serially diluted test compounds (100 μL) within the desired testing concentration ranges were added to the culture plate and the cells further incubated in culture conditions for 72 hr. The experiment was terminated at the designated incubation time by replacing the medium with 100 μL of 1 mM of resazurin (R7017; Sigma) prepared in culture medium, and the plates were further incubated in culture conditions for 4-6 hr. Fluorescence was recorded using a multimodal plate reader (Biotek Synergy Neo) at an excitation wavelength of 535 nm and emission wavelength of 590 nm to obtain relative fluorescence units. Data were analysed as follows: the background fluorescence (blank containing only medium) value was subtracted from each reading and normalized with the vehicle control (DMSO treated cells) to obtain percent survival/proliferation. […] Potency of compounds in other cell lines (such as A549, As-Pc-1, Panc-10.05, MDA-MB-231, A172, U-87MG) may be determined in an analogous manner.

T1 sequence (P30291 whole entry): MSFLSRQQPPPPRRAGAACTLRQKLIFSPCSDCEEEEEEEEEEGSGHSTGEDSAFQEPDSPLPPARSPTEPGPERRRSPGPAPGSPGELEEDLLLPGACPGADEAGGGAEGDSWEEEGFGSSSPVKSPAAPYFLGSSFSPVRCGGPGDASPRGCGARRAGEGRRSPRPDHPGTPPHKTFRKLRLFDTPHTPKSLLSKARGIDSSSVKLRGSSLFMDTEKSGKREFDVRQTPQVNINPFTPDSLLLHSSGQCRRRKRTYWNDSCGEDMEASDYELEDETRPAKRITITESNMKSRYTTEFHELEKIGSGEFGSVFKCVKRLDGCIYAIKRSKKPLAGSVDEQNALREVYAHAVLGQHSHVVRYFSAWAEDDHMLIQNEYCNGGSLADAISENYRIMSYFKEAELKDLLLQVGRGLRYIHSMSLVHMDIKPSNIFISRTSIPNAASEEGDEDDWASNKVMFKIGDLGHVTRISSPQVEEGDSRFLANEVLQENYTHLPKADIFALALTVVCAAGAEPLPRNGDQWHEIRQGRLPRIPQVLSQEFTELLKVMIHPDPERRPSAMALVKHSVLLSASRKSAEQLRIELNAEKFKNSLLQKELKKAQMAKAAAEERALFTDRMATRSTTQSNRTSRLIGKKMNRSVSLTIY

Compound	IC50 (WEE1 kinase enzyme) [nM]	IC50 (A427 cells) [nM]
CN(C)CC(=O)N1CCc2cc(Nc3ncc4c(n3)OCN(c3c(Cl)cccc3Cl)C4=O)ccc2C1 [1.37, 3-(2,6-dichlorophenyl)-7-(2-(2-(dimethylamino)acetyl)-1,2,3,4-tetrahydroisoquinolin-6-ylamino)-2H-pyrimido[5,4-e][1,3]oxazin-4 (3H)-one]	145	–
CN(C)CC(=O)N1CCc2cc(Nc3ncc4c(n3)OCN(c3c(Cl)cccc3Cl)C4=O)ccc2C1(C)C [1.48, 3-(2,6-dichlorophenyl)-7-((2-(dimethylglycyl)-1,1-dimethyl-1,2,3,4-tetrahydroisoquinolin-6-yl)amino)-2,3-dihydro-4H-pyrimido[5,4-e][1,3]oxazin-4-one]	125	–
CC(C)N1CCc2cc(Nc3ncc4c(n3)OCN(c3c(Cl)cccc3Cl)C4=O)ccc2C1 [Compound No. 1.40, 3-(2,6-dichlorophenyl)-7-((2-isopropyl-1,2,3,4-tetrahydroisoquinolin-6-yl)amino)-2,3-dihydro-4H-pyrimido[5,4-e][1,3]oxazin-4-one]	206	–
CC(C)N1CCc2ccc(Nc3ncc4c(n3)OCN(c3c(Cl)cccc3Cl)C4=O)cc2C1 [Compound No. 1.43, 3-(2,6-dichlorophenyl)-7-((2-isopropyl-1,2,3,4-tetrahydroisoquinolin-7-yl)amino)-2,3-dihydro-4H-pyrimido[5,4-e][1,3]oxazin-4-one]	21	5500
CN(C)CC(=O)N1CCc2ccc(Nc3ncc4c(n3)OCN(c3c(Cl)cccc3Cl)C4=O)cc2C1 [Compound No. 1.44, 3-(2,6-dichlorophenyl)-7-((2-(dimethylglycyl)-1,2,3,4-tetrahydroisoquinolin-7-yl)amino)-2,3-dihydro-4H-pyrimido[5,4-e][1,3]oxazin-4-one]	225	–
